Results reported in PubChem BioAssay AID248 (DTP/NCI, 2004).
Inconclusive results and toxic doses are left out. No stated cut-off is given here; in the data, active means T/C of 150% or more; inactive means T/C below 125%.

Test system: L1210 leukemia ip in BDF1 mice, survival T/C
Assay: NCI In Vivo Anticancer Drug Screen. Data for tumor model L1210 Leukemia (intraperitoneal) in B6D2F1 (BDF1) mice
Details: endpoint: mean survival time, higher = longer survival
Procedure, shortened: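 Each compound was tested against a transplantable tumor grown in mice. The endpoint was survival, with treated animals benchmarked against vehicle controls as a simple ratio.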

[1] = dose: 100.0 mg/kg/injection, schedule: Q01DX001 (ip), vehicle: saline
[2] = dose: 100.0 mg/kg/injection, schedule: Q01DX009 (ip), vehicle: saline
[3] = dose: 100.0 mg/kg/injection, schedule: Q04DX003 (ip), vehicle: saline
[4] = dose: 200.0 mg/kg/injection, schedule: Q01DX001 (ip), vehicle: saline
[5] = dose: 200.0 mg/kg/injection, schedule: Q01DX009 (ip), vehicle: saline
[6] = dose: 200.0 mg/kg/injection, schedule: Q04DX003 (ip), vehicle: saline
[7] = dose: 400.0 mg/kg/injection, schedule: Q01DX001 (ip), vehicle: saline
[8] = dose: 400.0 mg/kg/injection, schedule: Q01DX009 (ip), vehicle: saline
[9] = dose: 400.0 mg/kg/injection, schedule: Q04DX003 (ip), vehicle: saline
[10] = dose: 100.0 mg/kg/injection, schedule: Q01DX009 (ip), vehicle: saline with Tween-80
[11] = dose: 100.0 mg/kg/injection, schedule: Q04DX003 (ip), vehicle: saline with Tween-80
[12] = dose: 200.0 mg/kg/injection, schedule: Q01DX009 (ip), vehicle: saline with Tween-80
[13] = dose: 200.0 mg/kg/injection, schedule: Q04DX003 (ip), vehicle: saline with Tween-80
[14] = dose: 400.0 mg/kg/injection, schedule: Q04DX003 (ip), vehicle: saline with Tween-80
[15] = dose: 400.0 mg/kg/injection, schedule: Q01DX009 (ip), vehicle: saline with Tween-80
[16] = dose: 100.0 mg/kg/injection, schedule: Q01DX009 (ip), vehicle: Klucel (hydroxypropylcellulose) (HPC)
[17] = dose: 100.0 mg/kg/injection, schedule: Q04DX003 (ip), vehicle: Klucel (hydroxypropylcellulose) (HPC)
[18] = dose: 200.0 mg/kg/injection, schedule: Q01DX009 (ip), vehicle: Klucel (hydroxypropylcellulose) (HPC)
[19] = dose: 200.0 mg/kg/injection, schedule: Q04DX003 (ip), vehicle: Klucel (hydroxypropylcellulose) (HPC)
[20] = dose: 400.0 mg/kg/injection, schedule: Q01DX009 (ip), vehicle: Klucel (hydroxypropylcellulose) (HPC)
[21] = dose: 400.0 mg/kg/injection, schedule: Q04DX003 (ip), vehicle: Klucel (hydroxypropylcellulose) (HPC)
[22] = dose: 100.0 mg/kg/injection, schedule: Q04DX002 (ip), vehicle: Klucel (hydroxypropylcellulose) (HPC)
[23] = dose: 200.0 mg/kg/injection, schedule: Q04DX002 (ip), vehicle: Klucel (hydroxypropylcellulose) (HPC)

Measured: T/C

CC(=O)C1OC1(C)C (stereo not drawn)
inactive: [1] 108 % of control | [2] 105 % of control | [3] 108 % of control | [4] 103 % of control | [5] 104 % of control | [6] 102 % of control | [7] 104 % of control | [8] 104 % of control | [9] 102 % of control

O=[N+]([O-])c1ccc(OCCOc2ccc([N+](=O)[O-])cc2)cc1
inactive: [1] 103 % of control | [4] 107 % of control | [7] 97 % of control

CC(C)=C(C=O)CCC(C)C
inactive: [10] 93 % of control | [11] 95 % of control | [12] 88 % of control | [13] 93 % of control | [14] 97 % of control

O=C(N/N=C/c1ccc(Cl)c([N+](=O)[O-])c1)C(O)(c1ccccc1)c1ccccc1
inactive: dose: 100.0 mg/kg/injection, schedule: Q01DX001 (ip), vehicle: carboxymethylcellulose (CMC) 103 % of control | dose: 200.0 mg/kg/injection, schedule: Q01DX001 (ip), vehicle: carboxymethylcellulose (CMC) 95 % of control | dose: 400.0 mg/kg/injection, schedule: Q01DX001 (ip), vehicle: carboxymethylcellulose (CMC) 101 % of control

NCCNCCNCCN
inactive: dose: 50.0 mg/kg/injection, schedule: Q01DX001 (ip), vehicle: saline 95 % of control | [1] 95 % of control | [2] 93 % of control | [3] 102 % of control | [4] 98 % of control | [5] 93 % of control | [6] 105 % of control | [7] 101 % of control | [8] 109 % of control | [9] 94 % of control

Nc1nc(N)c2nc(CNc3ccc(Cl)cc3)cnc2n1
inactive: dose: 20.0 mg/kg/injection, schedule: Q01DX009 (ip), vehicle: Klucel (hydroxypropylcellulose) (HPC) 96 % of control | dose: 40.0 mg/kg/injection, schedule: Q01DX009 (ip), vehicle: Klucel (hydroxypropylcellulose) (HPC) 96 % of control | dose: 80.0 mg/kg/injection, schedule: Q01DX009 (ip), vehicle: Klucel (hydroxypropylcellulose) (HPC) 104 % of control

O=C1c2ccccc2C(=O)N1C/C(Cl)=C/Cl
inactive: [10] 92 % of control | [11] 97 % of control | [12] 93 % of control | [13] 93 % of control | [15] 91 % of control | [14] 92 % of control

CCc1cc2c(cc1C(=O)CCN1CCCC1)C(C)(C)CCC2(C)C
inactive: dose: 25.0 mg/kg/injection, schedule: Q04DX002 (ip), vehicle: saline with Tween-80 90 % of control | dose: 50.0 mg/kg/injection, schedule: Q04DX002 (ip), vehicle: saline with Tween-80 90 % of control | dose: 100.0 mg/kg/injection, schedule: Q04DX002 (ip), vehicle: saline with Tween-80 90 % of control

CO/C(=C\c1ccc(OC)cc1)C(=O)O
inactive: [16] 93 % of control | [17] 100 % of control | [18] 90 % of control | [19] 101 % of control | [20] 93 % of control | [21] 100 % of control

COC(=O)N/N=C/c1ccc(C)cc1
inactive: [22] 108 % of control | [23] 115 % of control | dose: 400.0 mg/kg/injection, schedule: Q04DX002 (ip), vehicle: Klucel (hydroxypropylcellulose) (HPC) 94 % of control

CC(=O)OC1COC(n2cnc3c(=S)nc[nH]c32)C(OC(C)=O)C1OC(C)=O (stereo not drawn)
inactive: dose: 100.0 mg/kg/injection, schedule: Q01DX001 (ip), vehicle: other 107 % of control | [1] 94 % of control | dose: 200.0 mg/kg/injection, schedule: Q01DX001 (ip), vehicle: other 90 % of control | [4] 93 % of control | dose: 400.0 mg/kg/injection, schedule: Q01DX001 (ip), vehicle: other 96 % of control | [7] 96 % of control

O=C1OC(=O)C2C3C=CC(C3=C(c3ccccc3)c3ccccc3)C12 (stereo not drawn)
inactive: [16] 92 % of control | [10] 97 % of control | [17] 92 % of control | [18] 97 % of control | [12] 100 % of control | [13] 90 % of control | [21] 87 % of control | [14] 92 % of control

COc1ccc2[nH]c3c(C)c4cc[n+](C)cc4c(C)c3c2c1
inactive: dose: 6.25 mg/kg/injection, schedule: Q04DX003 (ip), vehicle: saline sonified 105 % of control | dose: 10.0 mg/kg/injection, schedule: Q04DX003 (ip), vehicle: saline 115 % of control | dose: 12.5 mg/kg/injection, schedule: Q04DX003 (ip), vehicle: saline sonified 122 % of control | dose: 20.0 mg/kg/injection, schedule: Q04DX003 (ip), vehicle: saline 88 % of control

Cc1cc(Cl)ccc1NC(=O)COc1ccc(Cl)cc1Cl
inactive: dose: 50.0 mg/kg/injection, schedule: Q01DX009 (ip), vehicle: saline with Tween-80 87 % of control | [10] 87 % of control | [11] 93 % of control | [12] 96 % of control | [13] 91 % of control

Cc1ccc(S(=O)(=O)/N=S(\CCCl)CCc2ccccc2)cc1 (stereo not drawn)
inactive: [17] 97 % of control | [19] 97 % of control | [21] 90 % of control

CC(=O)C(CCS(C)(=O)=O)(CCS(C)(=O)=O)C(=O)O
inactive: [17] 107 % of control | [19] 94 % of control | [21] 103 % of control

CCCCCCCCCCCCOc1ccccc1C(=O)O
inactive: dose: 100.0 mg/kg/injection, schedule: Q01DX009 (ip), vehicle: saline sonified 98 % of control | [17] 97 % of control | dose: 200.0 mg/kg/injection, schedule: Q01DX009 (ip), vehicle: saline sonified 116 % of control | [19] 89 % of control | dose: 400.0 mg/kg/injection, schedule: Q01DX009 (ip), vehicle: saline sonified 108 % of control | [21] 99 % of control

COc1ccc(S(=O)(=O)NC(=O)NC(=O)CC=C(C)C)cc1
inactive: dose: 50.0 mg/kg/injection, schedule: Q04DX002 (ip), vehicle: Klucel (hydroxypropylcellulose) (HPC) 103 % of control | [16] 105 % of control | [22] 96 % of control | [17] 110 % of control | [18] 95 % of control | [23] 103 % of control | [19] 98 % of control | [20] 97 % of control | [21] 104 % of control

COc1cc(C=O)ccc1OC(=O)Nc1cc([N+](=O)[O-])ccc1F
inactive: [16] 97 % of control | [18] 93 % of control | [20] 92 % of control

CCCCCCCCC(CCCCCCCC)C1CCCCC1
inactive: dose: 100.0 mg/kg/injection, schedule: Q01DX001 (ip), vehicle: saline with Tween-80 98 % of control | dose: 200.0 mg/kg/injection, schedule: Q01DX001 (ip), vehicle: saline with Tween-80 95 % of control | dose: 400.0 mg/kg/injection, schedule: Q01DX001 (ip), vehicle: saline with Tween-80 93 % of control

O=[N+]([O-])c1ccc2scnc2c1
inactive: dose: 100.0 mg/kg/injection, schedule: Q01DX001 (ip), vehicle: acetone 98 % of control | dose: 100.0 mg/kg/injection, schedule: Q04DX003 (ip), vehicle: acetone 107 % of control | dose: 200.0 mg/kg/injection, schedule: Q01DX001 (ip), vehicle: acetone 92 % of control | dose: 200.0 mg/kg/injection, schedule: Q04DX003 (ip), vehicle: acetone 89 % of control | dose: 400.0 mg/kg/injection, schedule: Q01DX001 (ip), vehicle: acetone 95 % of control | dose: 400.0 mg/kg/injection, schedule: Q04DX003 (ip), vehicle: acetone 96 % of control

CCCCN(C)N=Nc1ccc(CCC(=O)NN)cc1
inactive: dose: 33.0 mg/kg/injection, schedule: Q01DX009 (ip), vehicle: carboxymethylcellulose (CMC) 107 % of control | dose: 50.0 mg/kg/injection, schedule: Q01DX009 (ip), vehicle: carboxymethylcellulose (CMC) 101 % of control

Cc1nonc1C(=O)O
inactive: dose: 100.0 mg/kg/injection, schedule: Q04DX002 (ip), vehicle: saline 102 % of control | dose: 200.0 mg/kg/injection, schedule: Q04DX002 (ip), vehicle: saline 87 % of control | dose: 400.0 mg/kg/injection, schedule: Q04DX002 (ip), vehicle: saline 98 % of control

O=c1ccnc[nH]1
inactive: [10] 92 % of control | [12] 93 % of control | [15] 88 % of control

O=[N+]([O-])c1ccc(/C=C/c2ccccc2)c([N+](=O)[O-])c1
inactive: [17] 104 % of control | [19] 98 % of control | [21] 101 % of control
